≈ marks a conversion by molar mass, not a printed value. Where “and” joins values, the source holds several entries; their conditions need not be identical. Equal values may be shown once. Read-outs that look alike come from different tables or passages of the source.
Columns and labels:
[1] = test system: HCT116 (human colorectal carcinoma); assay: Disk diffusion assay, zone of inhibition, HCT116; assay type: cell-based; details: 1 mg/mL
Description: (§1) A disk diffusion assay was performed to define the differential cell killing ability of 15-O-(3′-hydroxy-3′-isopropyl-4′-methylpentanoyl)bruceolide. Seven cell types were assayed: L1210 (ATCC CCL-219) (murine leukemia), CCRF-CEM (ATCC CCL-119) (human leukemia), Colon 38 (murine colon adenocarcinoma), HCT116 (ATCC CCL-247) (human colorectal carcinoma), H125 (human lung carcinoma). The murine and human granulocyte/macrophage progenitor cell line (CFU-GM), served as controls.
(§2) Colon 38 cells (about 1 gram) were cut into small fragments in 15 mL of Hank's Balanced Salt Solution (HBSS) over a 100-mesh sieve and gently forced through by the scissors with HBSS constantly perfusing the sieve. The resulting material was then drawn into and out of a 5 mL syringe without a needle to further disperse the cell clumps. The cell solution was diluted and plated in 0.3% agarose in DMEM plus 10% heat-inactivated Bovine Calf Serum (BCS). For plating of all of the cell types (except controls), the 60 mm plates were first prepared with a hard agar bottom layer (0.6% agar in RPMI-1640 plus 15% BCS).
(§3) HCT116 and H125 cells were maintained in cell culture, and were removed from culture by a trypsin-collagenase-DNAase cocktail. The plating efficiencies of each cell type was sufficiently high that 30,000 cells in 3 mL produced the desired number of colonies (i.e., over 10,000 per plate) in 60 mm plates. This soft agar top layer (0.3% with the serum and media as above) plus the titrated tumor cells were poured into the plates and allowed to solidify.
(§4) A 15 μl sample of each compound was dropped onto a 6.5 mm disk (Baxter filter disks). The disks were allowed to dry overnight and then placed close to the edge of a petri dish. Depending upon the cell type, the dishes were incubated for 7 to 10 days, and examined by an inverted stereo-microscope (10×) for measurement of the zone of inhibition. The zone of inhibition was measured from the edge of the filter disk to the beginning of normal-sized colony formation. The diameter of the filter disk, 6.5 mm, was arbitrarily taken as a zone of 200 units. Compounds that were selective for killing solid tumors, as compared to leukemia or normal cells (“solid tumor selective”) were defined as those compounds which produced a difference in zones between solid tumor cells and either normal or leukemia cells of at least 250 units. The results of this analysis are set forth in Table 4, which illustrates the relative diameters of the zones of inhibition by various drugs on the growth of the respective cell types at various drug dilutions.

[2] = test system: HCT-116 cells; assay: HCT-116 cytotoxicity, viable cell count by trypan blue; assay type: cell-based, human
[3] = test system: human CFU-GM; assay type: cell-based; details: 1 mg/mL
Description: as §1
(§5) For CFU-GM cells, the femoral marrow of BD2F1 mice was flushed with MEM alpha (2 mL per femur). The cells were passed through an 18 gauge needle twice and the monodispersed suspension was counted. A total of 1.5×10^6 cells were plated in 3 mL of 0.3% agar with the addition of 10% L cell conditioned media, which provided colony stimulating factor, in MEM-alpha plus 10% BCS. For human CFU-GM, the cells were obtained from Poietic Technologies, Inc. (Gaithersburg, Md.) and washed twice with PBS before being titered and added to the agar mixture. The same cell number, culture conditions, and conditioning factors used with respect to the murine CFU-GM cells were used with the human cells, except that the cultures were assessed after 10 days of incubation.
as §4

[4] = test system: H125 (human lung carcinoma); assay: Disk diffusion assay, zone of inhibition, H125; assay type: cell-based; details: 1 mg/mL
Description: as §1, §2, §3, §4

[5] = test system: murine CFU-GM; assay: Disk diffusion assay, zone of inhibition, murine CFU-GM; assay type: cell-based; details: 1 mg/mL
Description: as §1, §5, §4

[6] = test system: L1210 (murine leukemia); assay: Disk diffusion assay, zone of inhibition, L1210; assay type: cell-based; details: 1 mg/mL
Description: as §1, §2, §4

[7] = Maximum tolerated dose in mice; details: first stage, one mouse per dose
Description: Formulations containing 15-O-(3′-hydroxy-3′-isopropyl-4′-methylpentanoyl)bruceolide, 15-(3-isopropyl-4-methyl-2-pentenoyl)-bruceolide, and, for comparative purposes, bruceantin, or peninsularinone were prepared by solubilizing each compound in up to 100 mg/mL of ethanol. These solutions were diluted 1:1 with a stabilizer (Cremophor/propylene glycol). The solutions were then diluted in saline (1:10 minimum).
The maximum tolerated dose (MTD) was determined by a two-stage experiment. In the first stage, between 1 and 10 mg/mL of the formulation was prepared as described above. Next, 0.25 mL of the formulation was injected intravenously into one 20 gram mouse (0.75 mg/mouse). If the animal died within 30 days of injection, a series of subsequent 2-fold dilutions were administered to individual mice until an MTD was defined. […] The second stage of the study involved increasing the number of mice per dose to four, and retesting four dilutions that bracket the MTD from the individual mouse study. The four dilutions were the MTD, a dosage twice the MTD, a dosage ½ the MTD, and a dosage ¼ the MTD.

[8] = test system: Colon 38 (murine colon adenocarcinoma); assay: Disk diffusion assay, zone of inhibition, Colon 38; zone differentials, potency and product; assay type: cell-based; parameters: key to C38ΔL1210 / C38ΔCFU: difference of zone of inhibition values, in zone units; details: for zone of inhibition, Colon 38: 1 mg/mL; for Sum: C38ΔL1210 plus C38ΔCFU; for C38ΔL1210 / C38ΔCFU: difference between zone of inhibition values; for C38ΔL1210: Colon38 vs L1210 leukemia; for C38ΔCFU: Colon38 vs normal cell CFU-GM; for Product: potency multiplied by zone differentials
Method in brief: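 Dissociated Colon 38 cells were plated in soft agar over a hard agar layer; 15 µl of compound dilution dried on a 6.5 mm disk was placed on the plate, and incubation ran 7–10 days. Inhibition zone was measured from disk edge to normal colonies, with the disk diameter = 200 units. Potency = dilution giving 500 units; the product multiplies it by the differentials against L1210 or CFU-GM.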

[9] = test system: CCRF-CEM (human leukemia); assay: Disk diffusion assay, zone of inhibition, CCRF-CEM; assay type: cell-based; details: 1 mg/mL, dilution 1/100
Description: as §1, §2, §4

[10] = test system: HCT-116 cells; assay: Clonogenic assay, HCT-116; assay type: cell-based, human; details: colonies at 7 days
Description: A clonogenic assay was performed using HCT-116 cells. Specifically, HCT-116 cells were seeded at 200 to 20,000 cells in 60 mm dishes. […] At either 2 hours or 24 hours following drug administration, the drug-containing media was removed, and fresh media without drug was added. In addition, one group of cells was subjected to continuous drug exposure for the entire incubation period. The dishes were incubated for 7 days (at 37° C. and 5% CO2), media was removed, and the colonies were stained with methylene blue. Colonies containing 50 cells or more were counted. The results were normalized to an untreated control. Plating efficiency for the untreated cells was about 90%. Repeat experiments also were carried out to define the cell survival range between 1 (100%) and 10^−3 (0.1%) survival. A survival rate of 10^−1 was chosen as the minimal level that would be required in vivo to achieve therapeutic efficacy against HCT-116 cells in tumor-bearing mice. The clonogenic dose response to 15-O-(3′-hydroxy-3′-isopropyl-4′-methylpentanoyl)bruceolide is illustrated in FIG. 4. The clonogenic dose response to 15-(3-isopropyl-4-methyl-2-pentenoyl)-bruceolide is illustrated in FIG. 5.

[11] = test system: NCI-AR; assay: MTT cytotoxicity assay (% kill), NCI-AR; assay type: cell-based, human; details: 1 h exposure
Description: (§6) The following human tumor cell lines were obtained and cultured in sextuplicate microwells at 37° C. and 5% CO2 in humidified air and in 10% FBS in Eagles MEM: SK—N—FI, SK—N-AS, LS-174T, WiDr, HuTu-80, MCF7, NCI-AR, MES-Sar, and PL-45. Cells from each cell line were separately treated with an amount of one of the compounds of Formula I, II, or III (see Table 1). Cells were exposed to each compound (0.1 μg/mL or 1.0 μg/mL) for one hour or 24 hours, rinsed with drug-free media, and incubated for an additional five days. The number of viable cells after five days was measured using an MTT (3-(4,5-dimethylthiazol-2-yl)-2,5-diphenyltetrazolium bromide) assay (see, e.g., Mosmann, J. Immunol. Methods, 65(1-2), 55-63 (1983)).
(§7) The cytotoxicity of each drug was determined and expressed as the percent of cells killed (“% kill”).

[12] = test system: MES-Sar; assay: MTT cytotoxicity assay (% kill), MES-Sar; assay type: cell-based, human; details: 1 h exposure
Description: as §6, §7

[13] = test system: SK-N-AS; assay: MTT cytotoxicity assay (% kill), SK-N-AS; assay type: cell-based, human; details: MTT after five days
Description: as §6, §7

[14] = test system: LS-174T; assay: MTT cytotoxicity assay (% kill), LS-174T; assay type: cell-based, human; details: 1 h exposure, MTT after five days
Description: as §6, §7

[15] = test system: WiDr; assay: MTT cytotoxicity assay (% kill), WiDr; assay type: cell-based, human; details: 1 h exposure
Description: as §6, §7

[16] = no dilution, 15 μl on disk, 6.5 mm = 200 units

## COC(=O)[C@@]12OC[C@]34[C@H]([C@@H](O)[C@@H]1O)[C@@]1(C)CC(=O)C(O)=C(C)[C@@H]1C[C@H]3OC(=O)[C@H](OC(=O)/C=C(\C)C(C)C)[C@@H]24 [Bruceantin, bruceantin]
[1]; dilution 1/10
  zone of inhibition, H-116: 1000 units
[1]; dilution 1/100
  zone of inhibition, H-116: 400 units
[1]; dilution 1/1000
  zone of inhibition, H-116: 0 units
[1]; [16]
  zone of inhibition, H-116: >1000 units
[2]; HCT-116
  IC90/IC50: 6,700
[2]; Homo sapiens, 72 h, HCT-116, 3 days with compound, viable cells, by interpolation, read-out: IC50
  IC50: 0.0015 µg/mL (≈ 0.00273 µM)
[2]; Homo sapiens, 72 h, HCT-116, 3 days with compound, viable cells, by interpolation, read-out: IC90
  IC90: 10 µg/mL (≈ 18.2 µM)
[3]; dilution 1/10
  zone of inhibition, human CFU-GM: >1000 units
[3]; dilution 1/100
  zone of inhibition, human CFU-GM: 650 units
[4]; dilution 1/10
  zone of inhibition, H-125 M: >1000 units
[4]; dilution 1/100
  zone of inhibition, H-125 M: 600 units
[4]; dilution 1/1000
  zone of inhibition, H-125 M: 100 units
[4]; [16]
  zone of inhibition, H-125 M: >1000 units
[5]; dilution 1/10
  zone of inhibition, murine CFU-GM: 550 units
[5]; dilution 1/100
  zone of inhibition, murine CFU-GM: 150 units and 200 units
[5]; dilution 1/1000
  zone of inhibition, murine CFU-GM: 0 units
[6]; dilution 1/10
  zone of inhibition, L1210: 1000 units
[6]; [16]
  zone of inhibition, L1210: >1000 units
[7]; intravenous
  maximum tolerated dose, Dose - 1 Mouse: 0.1 mg/mouse
[7]; mouse, in vivo, iv, maximum tolerated dose, Dose - 1 Mouse
  MTD: 5.4 mg/kg
[8]; dilution 1/10
  zone of inhibition, Colon 38: >1000 units
[8]; dilution 1/100
  zone of inhibition, Colon 38: 600 units and 1000 units
[8]; dilution 1/1000
  zone of inhibition, Colon 38: 600 units and 450 units
[8]; [16]
  zone of inhibition, Colon 38: >1000 units
[8]
  Sum: 1050
  C38ΔL1210: 500
  C38ΔCFU: 550
  Product: 6300
[9]
  zone of inhibition, CEM: 450 units
[10]; HCT-116, 2 Hour Exposure
  Concentration Required for 10^−1 Survival Fraction: >10 μg/mL
[10]; HCT-116, 24 Hour Exposure
  Concentration Required for 10^−1 Survival Fraction: >10 μg/mL
[10]; HCT-116, Continuous Exposure
  Concentration Required for 10^−1 Survival Fraction: 2 × 10^−3 μg/mL

## CCC(O)(CC(=O)OC1C(=O)OC2CC3C(C)=C(O)C(=O)CC3(C)C3C(O)C(O)C4(C(=O)OC)OCC23C14)C(C)C (mixture of isomers) [(+/−)-15-O-(3′-ethyl-3′-hydroxy-4′-methyl)-bruceolide]
[11]; 0.1 μg/mL
  % kill, NCI-AR: 0%
[11]; 1.0 μg/mL
  % kill, NCI-AR: 0%
[12]; 0.1 μg/mL
  % kill, MES Sar: 0%
[12]; 1.0 μg/mL
  % kill, MES Sar: 0%
[13]; 0.1 μg/mL, 1 h exposure
  % Kill, SK-N-AS: 0%
[13]; 0.1 μg/mL, 24 h exposure
  % Kill, SK-N-AS: 0%
[13]; 1.0 μg/mL, 1 h exposure
  % Kill, SK-N-AS: 0%
[13]; 1.0 μg/mL, 24 h exposure
  % Kill, SK-N-AS: 0%
[14]; 0.1 μg/mL
  % Kill, LS-174T: 0%
[14]; 1.0 μg/mL
  % Kill, LS-174T: 0%
[8]
  Sum: 1150
  C38ΔL1210: 600
  C38ΔCFU: 550
  Product: 3450
[15]; 0.1 μg/mL
  % kill, WiDr: 0%
[15]; 1.0 μg/mL
  % kill, WiDr: 0%

Source: US20060281807A1, “Quassinoid compositions for the treatment of cancer and other proliferative diseases” (Tapestry Pharmaceuticals, Inc., priority 2005, published 2006)
